This note sets out measurements from patent US20130053357A1, “SKIN IRRITATION SUPPRESSANT AND TRANSDERMAL PREPARATION” (HISAMITSU PHARMACEUTICAL CO., INC., priority 2010, published 2013).

In assay [1] the test system is human three-dimensional culture epidermal model (LabCyte EPI-MODEL). Nature of the assay: Production of skin irritation mediators induced by PMA in human three-dimensional epidermal culture model (Experiment 1). It is filed as cell-based. The following applies: for activity at 0.01 % / activity at 1 % / activity at 0.1 %: Homo sapiens, 48 hours; for activity at 0.01 %: test substance 0.01 mass % with PMA in olive oil; for Effect on skin irritation mediator production by PMA (in words): summary of Table 1; for activity at 1 %: test substance 1 mass % with PMA in olive oil; for activity at 0.1 %: test substance 0.1 mass % with PMA in olive oil. The source says: Changes in production amounts of skin irritation mediators by test substances were examined when cutaneous irritants were caused to act on a human three-dimensional culture epidermal model.
A human three-dimensional epidermal culture model obtained by multilayer-culturing a human normal epidermal cell (LabCyte EPI-MODEL, manufactured by Japan Tissue Engineering Co., Ltd.) was used. LabCyte is a cultured skin cultured in a transwell. For the experiment, LabCyte was used with the transwell.
As test substances, there were used cholesterol (manufactured by Wako Pure Chemical Industries, Ltd.), β-sitosterol (manufactured by TAMA BIOCHEMICAL CO., LTD.), α-spinasterol (manufactured by ChromaDex, Inc.), ergosterol (manufactured by Wako Pure Chemical Industries, Ltd.), campesterol (manufactured by TAMA BIOCHEMICAL CO., LTD.), glycyrrhizin (manufactured by Wako Pure Chemical Industries, Ltd.), glycyrrhetinic acid (manufactured by Wako Pure Chemical Industries, Ltd.), ginsenoside (manufactured by Wako Pure Chemical Industries, Ltd.), squalene (manufactured by Wako Pure Chemical Industries, Ltd.), squalane (manufactured by Tokyo Chemical Industry Co., Ltd.) and lanosterol (manufactured by ChromaDex, Inc.), which are candidates of a skin irritation suppressant.
As skin irritants, Phorbol 12-Myristate 13-Acetate (PMA, manufactured by Wako Pure Chemical Industries, Ltd.) was used. In addition, as vehicle, olive oil (manufactured by Wako Pure Chemical Industries, Ltd.) was used.
Experiments were conducted by the following group composition. • PMA Only Group: A group with addition of only 0.00001 mol of PMA dispersed in a vehicle, as a test solution. • Test Substance Group: A group with addition of 0.00001 mol of PMA and the test substance which were dispersed in a vehicle, as a test solution.
The experiment was conducted as below. First, LabCyte was put into a 24-well assay plate. Then, 1 ml of assay medium (Japan Tissue Engineering Co., Ltd.) was added so that it was brought into contact with a bottom surface of the cultured skin in each well of the 24-well assay plate, and was pre-cultured in an incubator with 5% of carbon dioxide concentration at 37° C. for 1 hour.
Next, a cell survival rate was measured by the MTT method after causing the test solutions of each group to act. Specifically, 50 μL of the test solution of each group was added to the surface of the LabCyte after preculture, was cultured in the incubator with 5% of carbon dioxide concentration at 37° C. for 48 hours, then was transferred to the assay medium comprising 0.5 mg/ml of MTT reagent, and was cultured in the incubator with 5% of carbon oxide level at 37° C. for 3 hours. Then, LabCyte was immersed in 0.3 ml of an isopropanol solution, and the produced blue-purple formazan was extracted for 2 hours. After extraction, an absorbance at 570 nm was measured by a 96 microplate reader. The cell survival rate was calculated as below.
Cell survival rate (%)=(absorbance of Test Substance Group)/(absorbance of PMA Only Group)×100
Subsequently, a production amount of the skin irritation mediator at a test substance concentration with 80% or more of cell survival rate was measured. As skin irritation mediators, PGE2, IL-1α, IL-6, IL-8 were measured.
The test solutions of each group were added to the cells, the culture solutions incubated for 48 hours were collected, and a production amount of each skin irritation mediator was measured. The skin irritation mediator was measured by using a commercially available ELISA kit (manufactured by R&D Systems, Inc.). A relative production amount of the skin irritation mediator in each test substance was calculated as below, when the production amount of the skin irritation mediator in the PMA Only Group was set to 100.
Relative production amount=(production amount of the mediator in Test Substance Group)/(production amount of the mediator in PMA Only Group)×100

The test system of assay [2] is croton oil-induced mouse ear swelling. Nature of the assay: Suppression of croton oil-induced mouse ear swelling reaction (Experiment 3). It is filed as in vivo. The settings on record: for Inhibition Ratio Of Ear Swelling: ddY female mouse, 1% by mass of test substance in 2% croton oil solution, 25 μL on ears, auricular thickness 6 hours after; for Effect on croton oil-induced mouse ear swelling reaction (in words): summary of Table 3. The source says:
<Suppression of Croton Oil-Induced Mouse Ear Swelling Reaction by the Test Substances>
Suppression of mouse ear swelling was examined through the use of croton oil (Wako Pure Chemical Industries, Ltd.) as a swelling inducer. A 7-week-old ddY female mouse (SPF) was subjected to an experiment. As test substances, cholesterol, glycyrrhizin, glycyrrhetinic acid, squalene, ergosterol, squalane and lanosterol were used. As a vehicle, acetone (Wako Pure Chemical Industries, Ltd.) was used.
Experiments were conducted by the following group composition. • Positive Control Group: A group which received only the vehicle as a primary test solution, and one hour after, received a 2% croton oil solution as a secondary test solution. • Test Substance Group: A group in which only the vehicle was administered as a primary test solution, and one hour after, a 2% croton oil solution including 1% by mass of test substance was administered as a secondary test solution.
An inhibition ratio of ear swelling was calculated as below. In this test, a […] inflammation model is used to examine immediate swelling reactions. In accordance with the group composition, 25 μL of the primary test solution was uniformly coated on back sides of both ears in an etherize mouse, and one hour after, 25 μL of the secondary test solution was uniformly coated in accordance with the group composition. Prior to coating of the secondary test solution, a thickness of auricle was measured by DIAL […] GAUGE (OZAKI MFG CO., LTD.). Furthermore, the secondary test solution was administered, and 6 hours after, the auricular thickness was measured in the same way as mentioned above, and an increased amount of the auricular thickness was set by deducting the thickness measured prior to administration of the secondary test solution. The inhibition ratio of ear swelling was calculated as below.
Inhibition ratio of ear swelling (%)=(increased amount of auricular thickness in Test Substance Group−increased amount of auricular thickness in Negative Control Group)/(increased amount of auricular thickness in Positive Control Group−increased amount of auricular thickness in Negative Control Group)×100

The mark [3] stands for this setting: read-out: Relative Production Amount of Skin Irritation Mediator when Production Amount in PMA Only Group is Set to 100: IL-1α.
The mark [4] stands for this setting: read-out: Relative Production Amount of Skin Irritation Mediator when Production Amount in PMA Only Group is Set to 100: IL-6.
[5] abbreviates: read-out: Relative Production Amount of Skin Irritation Mediator when Production Amount in PMA Only Group is Set to 100: IL-8.
Setting [6] is: read-out: Relative Production Amount of Skin Irritation Mediator when Production Amount in PMA Only Group is Set to 100: PGE2.

Molecules are shown by their SMILES. Like-named read-outs stand apart in the source and are kept apart here.

For the molecule `CC(C)=CCC/C(C)=C/CC/C(C)=C/CC/C=C(\C)CC/C=C(\C)CCC=C(C)C` [Squalene, squalene], the activity at 0.01 % in assay [1] (setting [3]) came to 10%; in assay [1] (setting [4]), 0%; in assay [1] (setting [5]), 131%; in assay [1] (setting [6]), 88%. Further, in assay [1], the “Effect on skin irritation mediator production by PMA (in words)” value (shortened to “Effect … by PMA (in words)”) was “exhibited effects of suppressing the skin irritation mediator production by PMA”. The “Inhibition Ratio Of Ear Swelling” value in assay [2] was determined as 44.4%. Further, in assay [2], the “Effect on croton oil-induced mouse ear swelling reaction (in words)” value is on record as “suppress croton oil-induced mouse ear swelling reaction”.

As to `CC(C)[C@@H](C)/C=C/[C@@H](C)[C@H]1CC[C@H]2C3=CC=C4C[C@@H](O)CC[C@]4(C)[C@H]3CC[C@]12C` [Ergosterol, ergosterol], the activity at 1 % in assay [1] (setting [3]) amounted to 71%; in assay [1] (setting [4]) it was 81%; in assay [1] (setting [5]) it was 111%; in assay [1] (setting [6]), 20%. Besides, the “Effect … by PMA (in words)” value in assay [1] is “exhibited effects of suppressing the skin irritation mediator production by PMA”. Moreover, the “Inhibition Ratio Of Ear Swelling” value in assay [2] was determined as 38.1%. Moreover, the “Effect on croton oil-induced mouse ear swelling reaction (in words)” value in assay [2] is “suppress croton oil-induced mouse ear swelling reaction”.

On to `CC(C)CCCC(C)CCCC(C)CCCCC(C)CCCC(C)CCCC(C)C` (stereo not drawn) [Squalane, squalane], for which the activity at 0.1 % in assay [1] (setting [3]) was 18%; in assay [1] (setting [4]) it was 55%; in assay [1] (setting [5]) it was 39%; in assay [1] (setting [6]), 41%. In addition, the “Effect … by PMA (in words)” value in assay [1] is recorded as “exhibited effects of suppressing the skin irritation mediator production by PMA”. For the same molecule, in assay [2], the “Inhibition Ratio Of Ear Swelling” value was found to be 61.6%. In addition, in assay [2], the “Effect on croton oil-induced mouse ear swelling reaction (in words)” value was “suppress croton oil-induced mouse ear swelling reaction”.

Turning to `CC1(C)[C@@H](O[C@H]2O[C@H](C(=O)O)[C@@H](O)[C@H](O)[C@H]2O[C@@H]2O[C@H](C(=O)O)[C@@H](O)[C@H](O)[C@H]2O)CC[C@]2(C)[C@H]3C(=O)C=C4[C@@H]5C[C@@](C)(C(=O)O)CC[C@]5(C)CC[C@@]4(C)[C@]3(C)CC[C@@H]12` [Glycyrrhizin, glycyrrhizin], the activity at 0.01 % in assay [1] (setting [3]) came to 85%; in assay [1] (setting [4]), 105%; in assay [1] (setting [5]) it was 154%; in assay [1] (setting [6]) it was 114%. Moreover, the “Effect … by PMA (in words)” value in assay [1] is “exhibited effects of suppressing the skin irritation mediator production by PMA”. In addition, in assay [2], the “Inhibition Ratio Of Ear Swelling” value came out at 34.1%. For the same molecule, the “Effect on croton oil-induced mouse ear swelling reaction (in words)” value in assay [2] is on record as “suppress croton oil-induced mouse ear swelling reaction”.

As for `CC(C)=CCC[C@@H](C)[C@H]1CC[C@@]2(C)C3=C(CC[C@]12C)[C@@]1(C)CC[C@H](O)C(C)(C)[C@@H]1CC3` [Lanosterol, lanosterol], the activity at 1 % in assay [1] (setting [3]) is 76%; in assay [1] (setting [4]) it was 90%; in assay [1] (setting [5]) it was 73%; in assay [1] (setting [6]), 47%. In addition, the “Effect … by PMA (in words)” value in assay [1] is given as “exhibited effects of suppressing the skin irritation mediator production by PMA”. Also, the “Inhibition Ratio Of Ear Swelling” value in assay [2] was determined as 65.9%. For the same molecule, the “Effect on croton oil-induced mouse ear swelling reaction (in words)” value in assay [2] is “suppress croton oil-induced mouse ear swelling reaction”.

Take `CC1(C)[C@@H](O)CC[C@]2(C)[C@H]3C(=O)C=C4[C@@H]5C[C@@](C)(C(=O)O)CC[C@]5(C)CC[C@@]4(C)[C@]3(C)CC[C@@H]12` [Glycyrrhetinic Acid, glycyrrhetinic acid]: the activity at 0.01 % in assay [1] (setting [3]) came to 77%; in assay [1] (setting [4]) it was 46%; in assay [1] (setting [5]), 81%; in assay [1] (setting [6]) it was 48%. The “Effect … by PMA (in words)” value in assay [1] is listed as “exhibited effects of suppressing the skin irritation mediator production by PMA”. Besides, the “Inhibition Ratio Of Ear Swelling” value in assay [2] was 53.4%. Besides, in assay [2], the “Effect on croton oil-induced mouse ear swelling reaction (in words)” value is “suppress croton oil-induced mouse ear swelling reaction”.
